The record followed here is US20200138020A1, “MICROBICIDAL COMPOSITION” (DDP Specialty Electronic Materials US 8, LLC, priority 2017, published 2020).

Test [1] concerns Candida albicans ATCC 10231. The test can be described thus: Synergy test: high resolution MIC microtiter plate assay, Potato Dextrose Broth. In kind it is cell-based. As to conditions: C. albicans ATCC 10231, PDB, contact time 48 hours; for SI (Synergy Index, Qa/QA+Qb/QB): <1 synergy; for MIC: Candida albicans, ATCC10231, 25 °C. The source says: (§1) One measure of synergism is the industrially accepted method described by Kull, F. C.; Eisman, P. C.; Sylwestrowicz, H. D. and Mayer, R. L., in Applied Microbiology 9:538-541 (1961), using the ratio determined by the formula:
(§2) Qa/QA+Qb/QB=Synergy Index (“SI”)
(§3) wherein: • QA=concentration of compound A (first component) in ppm, acting alone, which produced an end point (MIC of Compound A). • Qa=concentration of compound A in ppm, in the mixture, which produced an end point. • QB=concentration of compound B (second component) in ppm, acting alone, which produced an end point (MIC of Compound B). • Qb=concentration of compound B in ppm, in the mixture, which produced an end point.
(§4) When the sum of Qa/QA and Qb/QB is greater than one, antagonism is indicated. […] The lower the SI, the greater is the synergy shown by that particular mixture. The minimum inhibitory concentration (MIC) of a microbicide is the lowest concentration tested under a specific set of conditions that prevents the growth of the tested microorganisms.
(§5) Synergy tests were conducted using standard microtiter plate assays with media designed for optimal growth of the test microorganism. Potato Dextrose Broth (PDB medium) was used for testing yeast and mold. In this method, a wide range of combinations of microbicides and other personal care raw materials was tested by conducting high resolution MIC assays in the presence of lactic acid. High resolution MICs were determined by adding varying amounts of microbicide to one column of a microtitre plate and doing subsequent […] dilutions using an automated liquid handling system to obtain a series of closely spaced endpoints.
(§6) The synergy of the combinations of the present invention was determined against a yeast, Candida albicans (C. albicans ATCC 10231) and a mold, Aspergillus brasiliensis (A. brasiliensis ATCC 16404). The yeast and mold were used at concentrations of 5×10^5 cells per mL. These microorganisms are representative of natural contaminants in many consumer and industrial applications.
(§7) In this test, First Component (A) was lactic acid and the Second Component (B) was phenethyl alcohol.
• Candida albicans • ATCC 10231 • Potato Dextrose Broth • Contact Time=48 hours

Test [2] concerns Aspergillus brasiliensis ATCC 16404. The test is described as above. The class given is cell-based. As to conditions: A. brasiliensis ATCC 16404, PDB, contact time 3 days; for SI (Synergy Index, Qa/QA+Qb/QB): <1 synergy; for MIC: Aspergillus brasiliensis, ATCC16404, 72 h, 25 °C.
Source text: as §1, §2, §3, §4, §5, §6, §7
• Aspergillus brasiliensis • ATCC 16404 • Potato Dextrose Broth • Contact Time=3 days

[3] abbreviates: read-out: MIC for lactic acid alone (QA).
[4] abbreviates: read-out: MIC for phenethyl alcohol alone (QB).

As a reminder, the MIC is the lowest concentration that inhibits growth of the organism.

SMILES strings stand for the structures. Where two headings read alike, the source gives them in different places.

For `CC(O)C(=O)O` (centres unmarked) [Lactic Acid, 2-hydroxypropanoic acid], the “SI (Synergy Index, Qa/QA+Qb/QB)” value in test [1] and in test [2] was 1.00 throughout. The MIC in test [1] (setting [3]) came out at 6000 µg/mL; in test [2] (setting [3]), 30000 µg/mL.
Consider `OCCc1ccccc1` [Phenethyl Alcohol, 2-phenylethan-1-ol], for which the “SI (Synergy Index, Qa/QA+Qb/QB)” value in test [1] and in test [2] was 1.00 throughout. In addition, the MIC in test [1] (setting [4]) and in test [2] (setting [4]) was 10000 µg/mL each time.
